From patent US20070179183A1 (priority 2003, published 2007)

biological target: T1, α4β1 integrin (Homo sapiens, UniProt P05556+P13612); test: U-937 Cell Adhesion to Human VCAM-1 (α4β1 Binding Assay); type: cell-based; conditions: read-out: IC50 values in the α4β1 assays
T1 construct: endogenous in cells; host or cells: U-937 cells
Experimental: Recombinant human soluble VCAM-1. (R&D Systems Ltd., UK) at 2 μg/ml in PBS was immobilized overnight onto microtiter plates. Unbound VCAM-1 was washed away and VCAM-1 coated plates were blocked with bovine serum albumin (BSA) 2.5% in PBS for 2 h at room temperature. U-937 cells were labelled with 5-carboxyfluorescein diacetate (5-CFDA) in order to detect bound cells to the wells. Test compounds were added to the wells followed by U-937 cells and the adhesion assay was performed for 1 h at 37° C. Following incubation, the wells were emptied and washed. Inhibition of binding was measured by the quantity of fluorescence bound to the plate for each of the various concentrations of test compound, as well as for controls containing no test compound, with a Cytofluor 2300 fluorescence measurement system.

T1 sequence (P13612 34-1032): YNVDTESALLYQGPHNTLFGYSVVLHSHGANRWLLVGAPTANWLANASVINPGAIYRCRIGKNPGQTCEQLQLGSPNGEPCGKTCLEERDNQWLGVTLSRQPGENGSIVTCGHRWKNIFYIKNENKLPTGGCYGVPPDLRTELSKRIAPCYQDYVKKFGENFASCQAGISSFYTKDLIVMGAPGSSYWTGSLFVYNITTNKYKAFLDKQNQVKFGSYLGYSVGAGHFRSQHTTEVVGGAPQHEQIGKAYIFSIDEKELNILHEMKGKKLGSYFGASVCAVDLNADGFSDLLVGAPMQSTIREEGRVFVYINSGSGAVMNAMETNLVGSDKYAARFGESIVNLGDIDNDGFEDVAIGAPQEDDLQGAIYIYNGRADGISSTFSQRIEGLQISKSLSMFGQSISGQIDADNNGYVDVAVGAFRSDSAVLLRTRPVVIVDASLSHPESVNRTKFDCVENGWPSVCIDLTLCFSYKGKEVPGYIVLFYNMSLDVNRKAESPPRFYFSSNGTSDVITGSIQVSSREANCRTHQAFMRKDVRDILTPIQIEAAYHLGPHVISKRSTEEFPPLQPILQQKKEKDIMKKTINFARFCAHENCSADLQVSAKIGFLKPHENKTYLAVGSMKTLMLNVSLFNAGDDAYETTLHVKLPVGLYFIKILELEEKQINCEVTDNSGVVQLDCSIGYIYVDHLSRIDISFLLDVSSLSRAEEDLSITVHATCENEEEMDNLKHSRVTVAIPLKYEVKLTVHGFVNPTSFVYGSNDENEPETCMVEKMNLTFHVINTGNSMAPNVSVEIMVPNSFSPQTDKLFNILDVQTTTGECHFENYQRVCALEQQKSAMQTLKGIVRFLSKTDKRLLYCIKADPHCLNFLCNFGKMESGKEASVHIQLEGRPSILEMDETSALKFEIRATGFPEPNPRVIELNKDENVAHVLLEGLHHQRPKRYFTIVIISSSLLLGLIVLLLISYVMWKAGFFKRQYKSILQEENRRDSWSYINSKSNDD
T1 sequence (P05556 21-798): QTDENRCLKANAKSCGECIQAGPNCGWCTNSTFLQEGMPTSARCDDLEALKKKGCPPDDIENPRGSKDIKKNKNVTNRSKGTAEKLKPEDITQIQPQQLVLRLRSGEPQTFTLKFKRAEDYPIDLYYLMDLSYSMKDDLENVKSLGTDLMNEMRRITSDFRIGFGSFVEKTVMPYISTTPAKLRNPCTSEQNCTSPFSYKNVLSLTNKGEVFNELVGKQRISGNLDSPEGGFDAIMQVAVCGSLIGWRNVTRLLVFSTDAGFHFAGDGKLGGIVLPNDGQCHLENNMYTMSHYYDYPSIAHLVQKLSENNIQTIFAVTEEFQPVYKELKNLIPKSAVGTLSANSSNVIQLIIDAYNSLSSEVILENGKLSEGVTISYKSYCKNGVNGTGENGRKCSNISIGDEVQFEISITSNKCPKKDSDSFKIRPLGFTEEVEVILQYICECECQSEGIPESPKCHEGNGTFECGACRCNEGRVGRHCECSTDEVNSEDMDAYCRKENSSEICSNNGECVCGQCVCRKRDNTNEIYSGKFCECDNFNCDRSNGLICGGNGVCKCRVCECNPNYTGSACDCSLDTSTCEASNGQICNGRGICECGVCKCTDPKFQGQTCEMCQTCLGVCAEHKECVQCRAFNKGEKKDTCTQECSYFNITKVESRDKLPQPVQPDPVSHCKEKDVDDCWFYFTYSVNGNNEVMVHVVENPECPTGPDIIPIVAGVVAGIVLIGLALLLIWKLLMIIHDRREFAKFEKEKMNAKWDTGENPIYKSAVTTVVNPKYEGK

IC50, < 0.1 µM:
O=C(Nc1ccc(C[C@H](NS(=O)(=O)NCc2ccccc2)C(=O)O)cc1)c1c(Cl)cccc1Cl [Example 3, (2S)-2-(N-benzylaminosulfonilamino)-3-[4-(2,6dichlorobenzoylamino)phenyl]propionic acid]
CC(C)CN([C@H](C)c1ccccc1)S(=O)(=O)N[C@@H](Cc1ccc(NC(=O)c2c(Cl)cncc2Cl)cc1)C(=O)O [Example 77, (2S)-3-{4-[(3,5-dichloroisonicotinoyl)amino]phenyl}-2-[({isobutyl[(1R)-1-phenylethyl]amino}sulfonyl)amino]propionic acid]
CC(C)N(C1CCCC1)S(=O)(=O)N[C@@H](Cc1ccc(NC(=O)c2c(Cl)cncc2Cl)cc1)C(=O)O [Example 71, (2S)-2-({[cyclopentyl(isopropyl)amino]sulfonyl}amino)-3-{4-[(3,5-dichloroisonicotinoyl)amino]phenyl}propionic acid]
O=C(Nc1ccc(C[C@H](NS(=O)(=O)Nc2ccccc2S(=O)(=O)c2ccccc2)C(=O)O)cc1)c1c(Cl)cncc1Cl [Example 81]
